Key:
Test in all cases: end-point exoribonuclease gel assay, […]'-FAM-A20 RNA
Format in all cases: biochemical
[1] = biological target: T1, H. sapiens PNPase (hPNPase) (Homo sapiens, UniProt Q8TCS8); conditions: inhibition; 700 nM FAM-A20 RNA, 240 nM enzyme, 3.75 mM MgCl2, phosphate, pH 8, 37 °C, 60 min; control without citrate 8.4 ± 2.8 %
T1 construct: gene PNPT1; N-terminal hexahistidine tag (pET-28b), codon-optimised, expressed in E. coli BL21(DE3)pLysS; homotrimer
T1 sequence (Q8TCS8 46-783): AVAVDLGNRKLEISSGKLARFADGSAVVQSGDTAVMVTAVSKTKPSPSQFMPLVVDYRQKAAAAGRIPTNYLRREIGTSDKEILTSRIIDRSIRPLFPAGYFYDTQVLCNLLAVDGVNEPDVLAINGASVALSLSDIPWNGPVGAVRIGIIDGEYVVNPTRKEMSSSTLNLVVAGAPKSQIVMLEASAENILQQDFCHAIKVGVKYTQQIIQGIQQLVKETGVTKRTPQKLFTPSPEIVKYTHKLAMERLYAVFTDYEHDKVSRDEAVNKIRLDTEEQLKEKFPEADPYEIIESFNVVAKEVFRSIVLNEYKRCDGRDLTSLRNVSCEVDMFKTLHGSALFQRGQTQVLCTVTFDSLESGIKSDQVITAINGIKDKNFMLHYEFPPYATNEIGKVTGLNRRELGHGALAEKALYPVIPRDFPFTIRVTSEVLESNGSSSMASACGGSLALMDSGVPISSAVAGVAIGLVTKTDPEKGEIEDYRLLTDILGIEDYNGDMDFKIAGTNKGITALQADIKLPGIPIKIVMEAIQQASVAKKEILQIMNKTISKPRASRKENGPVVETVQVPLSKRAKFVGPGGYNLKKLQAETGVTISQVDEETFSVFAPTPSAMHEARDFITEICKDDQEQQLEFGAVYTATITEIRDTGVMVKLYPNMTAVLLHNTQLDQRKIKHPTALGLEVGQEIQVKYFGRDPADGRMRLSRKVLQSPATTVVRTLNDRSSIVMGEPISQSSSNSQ

[2] = biological target: T2, Synechocystis sp. PNPase (SspPNPase) (Synechocystis sp. PCC 6803, UniProt P72659); conditions: inhibition; 700 nM FAM-A20 RNA, 240 nM enzyme, 3.75 mM MgCl2, phosphate, pH 8, 37 °C, 30 min; control without citrate 2.2 ± 0.2 %
T2 construct: gene pnp; recombinant, commercial (Sigma)
T2 sequence (P72659 1-718): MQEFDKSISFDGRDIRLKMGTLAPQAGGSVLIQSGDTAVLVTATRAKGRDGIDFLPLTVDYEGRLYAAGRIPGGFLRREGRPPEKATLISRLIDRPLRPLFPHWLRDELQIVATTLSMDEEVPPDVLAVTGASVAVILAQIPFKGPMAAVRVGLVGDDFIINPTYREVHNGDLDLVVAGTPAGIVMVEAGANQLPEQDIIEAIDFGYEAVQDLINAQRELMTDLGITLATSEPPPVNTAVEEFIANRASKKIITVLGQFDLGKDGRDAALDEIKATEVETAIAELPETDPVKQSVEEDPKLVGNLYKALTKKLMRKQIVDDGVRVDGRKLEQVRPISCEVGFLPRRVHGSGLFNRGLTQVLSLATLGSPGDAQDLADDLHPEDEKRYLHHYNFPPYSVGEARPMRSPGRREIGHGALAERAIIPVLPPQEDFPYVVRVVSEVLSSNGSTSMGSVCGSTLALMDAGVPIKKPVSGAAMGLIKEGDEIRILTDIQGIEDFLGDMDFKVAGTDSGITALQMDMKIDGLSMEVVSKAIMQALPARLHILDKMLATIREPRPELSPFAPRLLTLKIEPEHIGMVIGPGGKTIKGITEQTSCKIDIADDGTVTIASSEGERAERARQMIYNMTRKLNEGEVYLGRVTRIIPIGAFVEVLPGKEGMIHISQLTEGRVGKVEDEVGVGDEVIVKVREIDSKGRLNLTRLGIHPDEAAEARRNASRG

[3] = biological target: T3, S. solfataricus Exosome (SsoExosome) (Saccharolobus solfataricus, UniProt Q9UXC0+Q9UXC2); conditions: inhibition; 700 nM FAM-A20 RNA, 240 nM enzyme, 3.75 mM MgCl2, phosphate, pH 8, 37 °C, 10 min; control without citrate 4.0 ± 0.5 %
T3 construct: gene rrp41; N-terminal hexahistidine Rrp4 co-expressed with untagged Rrp41 and Rrp42 in E. coli BL21(DE3)pLysS; codon-optimised; trimer of Rrp41/Rrp42 dimers with Rrp4 cap; with Exosome complex component Rrp4
T3 sequence (Q9UXC2 1-248): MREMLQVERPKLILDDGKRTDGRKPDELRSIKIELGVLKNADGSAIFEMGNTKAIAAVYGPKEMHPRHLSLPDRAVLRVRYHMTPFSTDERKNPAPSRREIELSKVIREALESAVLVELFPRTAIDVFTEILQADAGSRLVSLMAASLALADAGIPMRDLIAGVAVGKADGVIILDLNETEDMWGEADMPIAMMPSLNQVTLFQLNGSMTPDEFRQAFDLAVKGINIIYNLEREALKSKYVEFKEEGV
T3 sequence (Q9UXC0 1-275): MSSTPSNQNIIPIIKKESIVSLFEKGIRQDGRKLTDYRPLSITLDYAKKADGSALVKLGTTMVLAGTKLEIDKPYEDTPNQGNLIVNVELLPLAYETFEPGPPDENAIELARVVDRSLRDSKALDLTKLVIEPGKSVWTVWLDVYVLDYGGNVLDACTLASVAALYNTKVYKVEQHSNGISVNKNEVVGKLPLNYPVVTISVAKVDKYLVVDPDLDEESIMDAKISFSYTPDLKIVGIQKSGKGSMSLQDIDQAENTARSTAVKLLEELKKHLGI
T3 sequence (Q9UXC4 1-249 partner): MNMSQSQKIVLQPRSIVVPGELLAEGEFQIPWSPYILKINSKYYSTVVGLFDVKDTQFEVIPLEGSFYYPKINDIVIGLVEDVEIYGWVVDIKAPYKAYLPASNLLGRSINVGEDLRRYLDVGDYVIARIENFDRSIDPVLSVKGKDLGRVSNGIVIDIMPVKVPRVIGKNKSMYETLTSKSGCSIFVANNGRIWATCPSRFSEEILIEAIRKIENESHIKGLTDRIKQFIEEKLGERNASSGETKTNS

[4] = biological target: T4, E. coli PNPase (EcPNPase) (Escherichia coli, UniProt P05055); conditions: inhibition; 700 nM FAM-A20 RNA, 240 nM enzyme, 3.75 mM MgCl2, phosphate, pH 8, 37 °C, 10 min; control without citrate 2.2 ± 0.4 %
T4 construct: gene pnp; pET-Duet1_EcPNPase expressed in E. coli BL21(DE3)pLysS; homotrimer
T4 sequence (P05055 1-711): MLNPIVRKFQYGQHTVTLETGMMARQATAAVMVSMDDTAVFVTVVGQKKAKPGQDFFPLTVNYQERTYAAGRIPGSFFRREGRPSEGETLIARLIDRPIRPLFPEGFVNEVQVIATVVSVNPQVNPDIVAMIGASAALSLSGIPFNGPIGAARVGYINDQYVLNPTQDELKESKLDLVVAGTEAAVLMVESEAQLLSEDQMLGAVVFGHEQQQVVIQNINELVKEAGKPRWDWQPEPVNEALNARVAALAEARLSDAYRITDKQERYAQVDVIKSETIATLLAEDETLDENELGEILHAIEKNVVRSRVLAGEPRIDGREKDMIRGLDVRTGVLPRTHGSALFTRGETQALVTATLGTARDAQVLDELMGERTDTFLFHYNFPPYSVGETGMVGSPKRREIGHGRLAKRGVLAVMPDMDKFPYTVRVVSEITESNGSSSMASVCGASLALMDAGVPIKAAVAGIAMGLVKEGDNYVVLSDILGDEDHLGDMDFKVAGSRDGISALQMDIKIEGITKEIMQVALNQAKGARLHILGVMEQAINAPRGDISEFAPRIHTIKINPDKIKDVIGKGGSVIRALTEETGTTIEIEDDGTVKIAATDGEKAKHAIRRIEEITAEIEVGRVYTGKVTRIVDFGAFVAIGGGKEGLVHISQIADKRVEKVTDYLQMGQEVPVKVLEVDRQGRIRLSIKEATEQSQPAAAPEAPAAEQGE

- Percentage substrate remaining at assay end-point / + citrate [1]: 22.8 ± 4.8%
- Percentage substrate remaining at assay end-point / + citrate [2]: 6.9 ± 2.2%
- Percentage substrate remaining at assay end-point / + citrate [3]: 13.6 ± 0.5%
- Percentage substrate remaining at assay end-point / + citrate [4]: 5.6 ± 1.5%
Compound: O=C(O)CC(O)(CC(=O)O)C(=O)O [citrate]

From article PMC5416783, “Inhibition of homologous phosphorolytic ribonucleases by citrate may represent an evolutionarily conserved communicative link between RNA degradation and central metabolism” (Nucleic Acids Research, 2017)
